Activity calls are given as the source filed them.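 The calls were made as follows: active = more than half of replicate measurements showing over 20% loss of kinase signal relative to plate controls; inconclusive = some but at most half of replicates over 20% loss; inactive = no replicate over 20% signal loss.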
Biological target: Glycogen synthase kinase-3 alpha (Homo sapiens) (UniProt P49840)
Assay: concentration-response blocking of human GSK3A – biochemical, luminescence, cell-free homogeneous, retest, dose response (AID 463203)
Details: GSK-3 alpha enzyme, ADP-Glo luminescence, 60 min

Glycogen synthase kinase-3 alpha (Homo sapiens), sequence (P49840 whole entry, looked up): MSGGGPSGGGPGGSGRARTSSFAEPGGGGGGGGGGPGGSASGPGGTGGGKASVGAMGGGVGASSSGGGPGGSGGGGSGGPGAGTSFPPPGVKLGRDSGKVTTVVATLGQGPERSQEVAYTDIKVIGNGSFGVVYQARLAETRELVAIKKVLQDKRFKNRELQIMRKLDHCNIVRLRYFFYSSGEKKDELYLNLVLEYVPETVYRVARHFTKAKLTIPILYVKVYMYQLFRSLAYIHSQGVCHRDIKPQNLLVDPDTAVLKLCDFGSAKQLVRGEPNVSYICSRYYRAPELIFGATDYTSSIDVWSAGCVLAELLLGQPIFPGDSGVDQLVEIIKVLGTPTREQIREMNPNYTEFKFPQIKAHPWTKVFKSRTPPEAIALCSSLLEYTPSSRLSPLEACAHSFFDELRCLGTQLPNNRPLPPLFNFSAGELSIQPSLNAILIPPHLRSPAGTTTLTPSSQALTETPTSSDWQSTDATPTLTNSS

**Q.** How did the AC50 turn out when `Cc1ccc(C2C(C#N)=C(N)Oc3nc(-c4ccccc4)[nH]c32)o1` (configuration not stated) was run?
**A.** > 30 µM (inactive)

**Q.** With `NNC(=O)/C(=N/Nc1ccccc1)S(=O)(=O)c1ccc(Cl)cc1` as the compound, how does the AC50 read?
**A.** > 30 µM (inactive)

**Q.** How did the AC50 turn out when `CCOC(=O)c1[nH]c2c(c1-c1ccccc1)C(=O)CC(c1ccc(Cl)cc1)C2` (configuration not stated) was run?
**A.** > 30 µM (inactive)

**Q.** How did the AC50 turn out when `O=c1[nH]cccc1-c1nc2ccccc2[nH]1` was run?
**A.** 4.92 µM

**Q.** With `COc1cc2c(C#N)c(N3CCCCC3)nc(N)c2c(N)n1` as the compound, how does the AC50 read?
**A.** 13.4 µM

**Q.** With `COc1ccc(CCNc2ccc(S(=O)(=O)N3CCCC3)cc2[N+](=O)[O-])cc1` as the compound, how does the AC50 read?
**A.** > 30 µM (inactive)

**Q.** For `CC1(C)Cc2c(sc3ncn(N)c(=N)c23)CO1`, which AC50 is on record?
**A.** > 30 µM (inactive)

**Q.** For `COC(=O)C1=C(C)Nc2ncnn2C1c1ccco1` (configuration not stated), which AC50 is on record?
**A.** > 30 µM (inactive)

**Q.** For `CCOc1ccc(Nc2nc(N(C)c3ccccc3)nc(N)c2[N+](=O)[O-])cc1`, which AC50 is on record?
**A.** > 30 µM (inactive)

**Q.** How did the AC50 turn out when `Cc1ccc(C(=O)N2NC(c3ccccc3F)C3C(=O)N(c4cccc(C)c4)C(=O)C32)cc1` (configuration not stated) was run?
**A.** > 30 µM (inactive)

**Q.** `O=C(Nc1ccccc1N1CCN(C(=O)c2ccccc2)CC1)c1ccc(Br)o1` was tested. Which AC50 did it give?
**A.** 3.51 µM

**Q.** For `CCCCC(=O)Nc1nn(CC)c2nc3c(C)cccc3cc12`, which AC50 is on record?
**A.** > 30 µM (inactive)

**Q.** Which AC50 does the source give for `O=C(CN1CCOCC1)Nc1cccc(Br)c1` here?
**A.** > 30 µM (inactive)

**Q.** How did the AC50 turn out when `Cc1nn2cc(-c3ccccc3)nc2[nH]c1=O` was run?
**A.** > 30 µM (inactive)

**Q.** For `COc1ccc(/C=C/c2nc(N)nc(-c3ccccc3O)n2)cc1`, which AC50 is on record?
**A.** > 30 µM (inactive)

**Q.** `CC(C(=O)Nc1cccc(Br)c1)c1ccc([N+](=O)[O-])cc1` (configuration not stated) was tested. Which AC50 did it give?
**A.** > 30 µM (inactive)

**Q.** How did the AC50 turn out when `CCN(CC)Cc1c(C(=O)N/N=C(\C)c2ccncc2)nnn1-c1nonc1N` was run?
**A.** 9.96 µM

**Q.** Which AC50 does the source give for `COc1ccccc1C(=O)Nc1nc(C)cc(C)n1` here?
**A.** > 30 µM (inactive)

**Q.** `COc1ccccc1NC(=O)c1cc(Cl)ccc1NC(=O)c1ccco1` was tested. Which AC50 did it give?
**A.** > 30 µM (inactive)

**Q.** With `Cc1ccc(Sc2ccc(NC(=O)CCl)cc2)cc1C` as the compound, how does the AC50 read?
**A.** > 30 µM (inactive)

**Q.** How did the AC50 turn out when `O=C(Nc1ccccc1C(=O)NC1CCCCC1)c1ccco1` was run?
**A.** > 30 µM (inactive)

**Q.** How did the AC50 turn out when `CCOC(=O)c1c(NC(=O)CN2C(=O)NC3(CCC(C)CC3)C2=O)sc(C)c1CC` (configuration not stated) was run?
**A.** > 30 µM (inactive)

**Q.** With `CCCCc1[nH]c(=O)c(C#N)c2c1CCCC2` as the compound, how does the AC50 read?
**A.** > 30 µM (inactive)

**Q.** Which AC50 does the source give for `COc1ccccc1N1CC(C(=O)Nc2nc(C)cs2)CC1=O` (configuration not stated) here?
**A.** > 30 µM (inactive)

**Q.** For `N#CCCN(Cc1ccccc1)S(=O)(=O)c1cccs1`, which AC50 is on record?
**A.** > 30 µM (inactive)

**Q.** How did the AC50 turn out when `COc1ccc(OC)c(/C=C2\Oc3cc(OCC(=O)N4CC(O)C[C@H]4C(=O)O)ccc3C2=O)c1` (some centres not stated) was run?
**A.** > 30 µM (inactive)

**Q.** How did the AC50 turn out when `Fc1ccc(-c2nc3n(n2)Cc2ccccc2-3)cc1` was run?
**A.** > 30 µM (inactive)

**Q.** `CNc1cc(N2CCCC2)ccc1[N+](=O)[O-]` was tested. Which AC50 did it give?
**A.** > 30 µM (inactive)

**Q.** Which AC50 does the source give for `CCOCCCN(C(=O)c1snc(C(N)=O)c1N)C(C(=O)NC1CCCC1)c1ccc(O)cc1` (configuration not stated) here?
**A.** 27 µM

**Q.** For `COC(=O)c1oc2ccc(Cl)cc2c1N`, which AC50 is on record?
**A.** > 30 µM (inactive)

**Q.** With `COc1ccc(CNC(=O)c2cc(COc3c(F)cccc3F)on2)cc1OC` as the compound, how does the AC50 read?
**A.** > 30 µM (inactive)

**Q.** With `CCCn1c2ccccc2c2nc3ccccc3nc21` as the compound, how does the AC50 read?
**A.** > 30 µM (inactive)

**Q.** Which AC50 does the source give for `Nc1c(O)ccc2c1C(=O)c1ccccc1C2=O` here?
**A.** 18.7 µM

**Q.** `CCCCC(=O)Nc1sc2c(c1C(N)=O)CCC2` was tested. Which AC50 did it give?
**A.** > 30 µM (inactive)

**Q.** With `COc1c(C)cc(Br)cc1C(=O)Nc1cccc(NC(=O)c2ccco2)c1` as the compound, how does the AC50 read?
**A.** > 30 µM (inactive)

**Q.** `COc1ccc(OCc2nc(N)nc(Nc3ccc(C)cc3)n2)cc1` was tested. Which AC50 did it give?
**A.** > 30 µM (inactive)

**Q.** With `Brc1ccccc1/C=N/Nc1ccc2ccccc2n1` as the compound, how does the AC50 read?
**A.** > 30 µM (inactive)

**Q.** With `O=C(Nc1ccccc1-c1nnc(SCc2ccccc2Cl)o1)c1ccccc1` as the compound, how does the AC50 read?
**A.** > 30 µM (inactive)

**Q.** With `NS(=O)(=O)c1ccc(N=Nc2ccc(=O)[nH]c2O)cc1` as the compound, how does the AC50 read?
**A.** 6.56 µM

**Q.** Which AC50 does the source give for `CN(C)c1ccc(/C=N/NC(=O)c2ccccc2Cl)cc1` here?
**A.** > 30 µM (inactive)

**Q.** For `O=C(Nc1ccccc1N1CCOCC1)c1ccc(S(=O)(=O)NCc2ccco2)cc1`, which AC50 is on record?
**A.** > 30 µM (inactive)

**Q.** Which AC50 does the source give for `O=C(Nc1cccc(O)c1)c1ccc([N+](=O)[O-])cc1Cl` here?
**A.** > 30 µM (inactive)

**Q.** `O=c1[nH]c2c(s1)C(c1ccco1)C1C3CCC(C3)C1S2` (configuration not stated) was tested. Which AC50 did it give?
**A.** 15.3 µM

**Q.** For `S=c1[nH]nc(-c2cc3c(s2)-c2ccccc2CC3)o1`, which AC50 is on record?
**A.** 22.9 µM

**Q.** Which AC50 does the source give for `CC(=O)c1cc(-c2ccc(F)cc2)n(CCC(=O)Nc2cccc(C)n2)c1C` here?
**A.** > 30 µM (inactive)

**Q.** Which AC50 does the source give for `CCN1CCN(Cc2c(O)ccc3c2O/C(=C\C=C\c2ccccc2OC)C3=O)CC1` here?
**A.** > 30 µM (inactive)

**Q.** For `Cc1nc(Nc2ccc(S(N)(=O)=O)cc2)oc1C`, which AC50 is on record?
**A.** > 30 µM (inactive)

**Q.** How did the AC50 turn out when `N#CCCn1cc(C(=O)N2CCCCC2)c(-c2cccc([N+](=O)[O-])c2)n1` was run?
**A.** > 30 µM (inactive)

**Q.** `COC(=O)/C=C1/S/C(=N/NC(=O)c2ccccc2OC)NC1=O` was tested. Which AC50 did it give?
**A.** > 30 µM (inactive)

**Q.** `O=C(NC1(C(F)(F)F)NC(=O)N(Cc2cccnc2)C1=O)c1ccncc1` (configuration not stated) was tested. Which AC50 did it give?
**A.** > 30 µM (inactive)

**Q.** Which AC50 does the source give for `CC(=O)c1cc(-c2ccc(F)cc2)n(CCC(=O)NC(C)(C)C)c1C` here?
**A.** > 30 µM (inactive)

**Q.** With `CCOc1ccc(-c2nc(N)ncc2-c2ccccc2)c(O)c1` as the compound, how does the AC50 read?
**A.** 20.7 µM

From PubChem BioAssay AID463203 (Broad Institute, 2010)
